According to ChEMBL document CHEMBL3585283, “Synthesis and evaluation of a series of quinolinyl trans-cyanostilbene analogs as anticancer agents” (2014):
The source made the active and inactive calls. The calls are words filed in the database; no cut-off is given here.

Legend:
EKVX = assay: Antitumor activity against human EKVX cells after 48 hrs; type: functional, cell-based
SF-268 = assay: Antitumor activity against human SF268 cells after 48 hrs; type: functional; conditions: SF-268, 48 h
NCI-H522 = assay: Antitumor activity against human NCI-H522 cells after 48 hrs; type: functional; conditions: NCI-H522, 48 h
[1] = Antitumor activity against human SF539 cells after 48 hrs; type: functional; conditions: SF-539, 48 h
[2] = Antitumor activity against human Hs578T cells after 48 hrs; type: functional; conditions: Hs-578T
SK-MEL-2 = assay: Antitumor activity against human SK-MEL-2 cells after 48 hrs; type: functional; conditions: SK-MEL-2, 48 h
TK-10 = assay: Antitumor activity against human TK10 cells after 48 hrs; type: functional; conditions: TK-10, 48 h
HT-29 = assay: Antitumor activity against human HT-29 cells after 48 hrs; type: functional; conditions: HT-29, 48 h
[3] = Antitumor activity against human NCI-ADR-RES cells after 48 hrs; type: functional
[4] = Antitumor activity against human HOP92 cells after 48 hrs; type: functional; conditions: HOP-92, 48 h
[5] = Antitumor activity against human SF295 cells after 48 hrs; type: functional; conditions: SF-295, 48 h
CAKI-1 = assay: Antitumor activity against human Caki1 cells after 48 hrs; type: functional; conditions: CAKI-1, 48 h
NCI-H226 = assay: Antitumor activity against human NCI-H226 cells after 48 hrs; type: functional; conditions: NCI-H226, 48 h
786-0 = assay: Antitumor activity against human 786-0 cells after 48 hrs; type: functional; conditions: 786-0, 48 h
[6] = Antitumor activity against human HCC2998 cells after 48 hrs; type: functional; conditions: HCC 2998, 48 h
T47D = assay: Antitumor activity against human T47D cells after 48 hrs; type: functional
U-251 = assay: Antitumor activity against human U251 cells after 48 hrs; type: functional; conditions: U-251, 48 h
DU-145 = assay: Antitumor activity against human DU145 cells after 48 hrs; type: functional; conditions: DU-145, 48 h
[7] = Antitumor activity against human MOLT4 cells after 48 hrs; type: functional; conditions: MOLT-4, 48 h
Malme-3M = assay: Antitumor activity against human MALME-3M cells after 48 hrs; type: functional
MDA-MB-231 = assay: Antitumor activity against human MDA-MB-231 cells after 48 hrs; type: functional; conditions: MDA-MB-231, 48 h
NCI-H460 = assay: Antitumor activity against human NCI-H460 cells after 48 hrs; type: functional; conditions: NCI-H460, 48 h
MDA-MB-435 = assay: Antitumor activity against human MDA-MB-435 cells after 48 hrs; type: functional; conditions: MDA-MB-435, 48 h
ACHN = assay: Antitumor activity against human ACHN cells after 48 hrs; type: functional
[8] = Antitumor activity against human COLO205 cells after 48 hrs; type: functional; conditions: COLO 205, 48 h
CCRF-CEM = assay: Antitumor activity against human CCRF-CEM cells after 48 hrs; type: functional
HOP-62 = assay: Antitumor activity against human HOP62 cells after 48 hrs; type: functional; conditions: HOP-62, 48 h
OVCAR-8 = assay: Antitumor activity against human OVCAR8 cells after 48 hrs; type: functional; conditions: OVCAR-8, 48 h
[9] = Antitumor activity against human RPMI8226 cells after 48 hrs; type: functional; conditions: RPMI-8226, 48 h
SK-OV-3 = assay: Antitumor activity against human SKOV3 cells after 48 hrs; type: functional; conditions: SK-OV-3, 48 h
KM12 = assay: Antitumor activity against human KM12 cells after 48 hrs; type: functional; conditions: KM12, 48 h
MCF7 = assay: Antitumor activity against human MCF7 cells after 48 hrs; type: functional; conditions: MCF7, 48 h
SN12C = assay: Antitumor activity against human SN12C cells after 48 hrs; type: functional
[10] = Antitumor activity against human BT549 cells after 48 hrs; type: functional; conditions: BT-549, 48 h
SK-MEL-5 = assay: Antitumor activity against human SK-MEL-5 cells after 48 hrs; type: functional; conditions: SK-MEL-5, 48 h
A498 = assay: Antitumor activity against human A498 cells after 48 hrs; type: functional; conditions: A498, 48 h
HL-60(TB) = assay: Antitumor activity against human HL-60(TB) cells after 48 hrs; type: functional; conditions: HL-60, 48 h
OVCAR-5 = assay: Antitumor activity against human OVCAR5 cells after 48 hrs; type: functional; conditions: OVCAR-5, 48 h
SW-620 = assay: Antitumor activity against human SW620 cells after 48 hrs; type: functional
[11] = Antitumor activity against human LOXIMVI cells after 48 hrs; type: functional; conditions: LOX IMVI
OVCAR-3 = assay: Antitumor activity against human OVCAR3 cells after 48 hrs; type: functional; conditions: OVCAR-3, 48 h
HCT-116 = assay: Antitumor activity against human HCT116 cells after 48 hrs; type: functional; conditions: HCT-116, 48 h
UACC-257 = assay: Antitumor activity against human UACC257 cells after 48 hrs; type: functional; conditions: UACC-257, 48 h
[12] = Antitumor activity against human RXF393 cells after 48 hrs; type: functional; conditions: RXF 393, 48 h
SNB-75 = assay: Antitumor activity against human SNB75 cells after 48 hrs; type: functional; conditions: SNB-75, 48 h
NCI-H23 = assay: Antitumor activity against human NCI-H23 cells after 48 hrs; type: functional; conditions: NCI-H23, 48 h
SK-MEL-28 = assay: Antitumor activity against human SK-MEL-28 cells after 48 hrs; type: functional; conditions: SK-MEL-28, 48 h
M14 = assay: Antitumor activity against human M14 cells after 48 hrs; type: functional; conditions: M14, 48 h
K562 = assay: Antitumor activity against human K562 cells after 48 hrs; type: functional; conditions: K562, 48 h
SR = assay: Antitumor activity against human SR cells after 48 hrs; type: functional
PC-3 = assay: Antitumor activity against human PC3 cells after 48 hrs; type: functional; conditions: PC-3, 48 h
IGROV-1 = assay: Antitumor activity against human IGROV1 cells after 48 hrs; type: functional; conditions: IGROV-1, 48 h
MDA-MB-468 = assay: Antitumor activity against human MDA-MB-468 cells after 48 hrs; type: functional; conditions: MDA-MB-468, 48 h
A549 = assay: Antitumor activity against human A549 cells after 48 hrs; type: functional; conditions: A549, 48 h
NCI-H322M = assay: Antitumor activity against human NCI-H322M cells after 48 hrs; type: functional
HCT-15 = assay: Antitumor activity against human HCT15 cells after 48 hrs; type: functional; conditions: HCT-15, 48 h
SNB-19 = assay: Antitumor activity against human SNB19 cells after 48 hrs; type: functional; conditions: SNB-19, 48 h
UACC-62 = assay: Antitumor activity against human UACC62 cells after 48 hrs; type: functional; conditions: UACC-62, 48 h
OVCAR-4 = assay: Antitumor activity against human OVCAR4 cells after 48 hrs; type: functional; conditions: OVCAR-4, 48 h
UO-31 = assay: Antitumor activity against human UO31 cells after 48 hrs; type: functional; conditions: UO-31, 48 h

In the case of `COc1cc(OC)cc(/C(C#N)=C/c2cnc3ccccc3c2)c1`, the GI50 (EKVX) is reported as “inactive”, the GI50 (SF-268) is reported as 0.654 µM and the GI50 (NCI-H522) is reported as 0.069 µM. It also gave a GI50 [1] of 0.289 µM, a GI50 [2] of 0.715 µM and a GI50 (SK-MEL-2) of 0.709 µM. For the same compound, the GI50 (TK-10) was 17.7 µM, the GI50 (HT-29) was 0.362 µM and the GI50 [3] was 0.224 µM. The GI50 [4] was 3.09 µM, the GI50 [5] was 0.243 µM and the GI50 (CAKI-1) was 0.223 µM. It also gave a GI50 (NCI-H226) of 62.2 µM, a GI50 (786-0) of 0.484 µM and a GI50 [6] of 1.45 µM. It also gave a GI50 (T47D) of 0.628 µM, a GI50 (U-251) of 0.374 µM and a GI50 (DU-145) of 0.505 µM. For the same compound, the GI50 [7] was 0.378 µM, the GI50 (Malme-3M) was 0.635 µM and the GI50 (MDA-MB-231) was 1.15 µM. The GI50 (NCI-H460) was 0.362 µM, the GI50 (MDA-MB-435) was 0.053 µM and the GI50 (ACHN) was 1.19 µM. For the same compound, the GI50 [8] was 0.398 µM, the GI50 (CCRF-CEM) was 0.332 µM and the GI50 (HOP-62) was 0.793 µM. For the same compound, the GI50 (OVCAR-8) was 0.584 µM, the GI50 [9] was 0.332 µM and the GI50 (SK-OV-3) was 0.576 µM. It also gave a GI50 (KM12) of 0.409 µM, a GI50 (MCF7) of 0.333 µM and a GI50 (SN12C) of 0.661 µM. The GI50 [10] was 0.388 µM, the GI50 (SK-MEL-5) was 0.249 µM and the GI50 (A498) was 0.333 µM. The GI50 (HL-60(TB)) was 0.234 µM, the GI50 (OVCAR-5) was 0.587 µM and the GI50 (SW-620; SW-620, 48 h) was 0.352 µM. It also gave a GI50 [11] of 0.672 µM, a GI50 (OVCAR-3) of 0.279 µM and a GI50 (HCT-116) of 0.42 µM. It also gave a GI50 (UACC-257) of 12.8 µM, a GI50 [12] of 0.297 µM and a GI50 (SNB-75) of 0.224 µM. It also gave a GI50 (NCI-H23) of 0.747 µM, a GI50 (SK-MEL-28) of 1.4 µM and a GI50 (M14) of 0.31 µM. The GI50 (K562) was 0.243 µM, the GI50 (SR) was “inactive” and the GI50 (PC-3) was 0.506 µM. The GI50 (IGROV-1) was 3.5 µM, the GI50 (MDA-MB-468) was 0.217 µM and the GI50 (A549) was 0.556 µM. It also gave a GI50 (NCI-H322M) of 0.903 µM, a GI50 (HCT-15) of 0.455 µM and a GI50 (SNB-19) of 0.614 µM. It also gave a GI50 (UACC-62) of 0.357 µM and a GI50 (OVCAR-4) of 1.73 µM.
With `COc1cc(/C(C#N)=C/c2cnc3ccccc3c2)cc(OC)c1OC` the GI50 (EKVX) was “inactive”, the GI50 (SF-268) was 9.17 µM and the GI50 (NCI-H522) was 0.299 µM. The GI50 [1] was 0.361 µM, the GI50 [2] was 1.31 µM and the GI50 (SK-MEL-2) was 1.05 µM. The GI50 (TK-10) was 2.55 µM, the GI50 (HT-29) was 0.421 µM and the GI50 [3] was 0.343 µM. The GI50 [4] was 0.403 µM, the GI50 [5] was 0.556 µM and the GI50 (CAKI-1) was 0.346 µM. The GI50 (NCI-H226) was > 100 µM, the GI50 (786-0) was 6.29 µM and the GI50 [6] was 2.01 µM. It also gave a GI50 (T47D) of 9.54 µM, a GI50 (U-251) of 1.7 µM and a GI50 (DU-145) of 1.51 µM. The GI50 [7] was 3.2 µM, the GI50 (Malme-3M) was 0.691 µM and the GI50 (MDA-MB-231) was 2.83 µM. For the same compound, the GI50 (NCI-H460) was 2.05 µM, the GI50 (MDA-MB-435) was 0.227 µM and the GI50 (ACHN) was 0.911 µM. The GI50 [8] was 0.374 µM, the GI50 (CCRF-CEM) was 1.38 µM and the GI50 (HOP-62) was 10.3 µM. For the same compound, the GI50 (OVCAR-8) was 3.41 µM, the GI50 [9] was 2.06 µM and the GI50 (SK-OV-3) was 1.34 µM. The GI50 (KM12) was 0.436 µM, the GI50 (MCF7) was 0.429 µM and the GI50 (UO-31) was 0.58 µM. It also gave a GI50 (SN12C) of 1.94 µM, a GI50 [10] of 1.43 µM and a GI50 (SK-MEL-5) of 0.41 µM. The GI50 (A498) was 0.678 µM, the GI50 (HL-60(TB)) was 0.329 µM and the GI50 (OVCAR-5) was 3.94 µM. The GI50 (SW-620) was “inactive”, the GI50 [11] was 0.645 µM and the GI50 (OVCAR-3) was 0.263 µM. It also gave a GI50 (HCT-116) of 0.464 µM, a GI50 [12] of 0.579 µM and a GI50 (SNB-75) of 1.49 µM. The GI50 (NCI-H23) was 2.93 µM, the GI50 (SK-MEL-28) was 3.27 µM and the GI50 (M14) was 0.54 µM. For the same compound, the GI50 (K562) was 0.444 µM, the GI50 (SR) was 0.569 µM and the GI50 (PC-3) was 1.08 µM. It also gave a GI50 (IGROV-1) of 3.15 µM, a GI50 (MDA-MB-468) of 0.87 µM and a GI50 (A549) of 0.68 µM. The GI50 (NCI-H322M) was 27.4 µM, the GI50 (HCT-15) was 1.08 µM and the GI50 (SNB-19) was 5.23 µM. The GI50 (UACC-62) was 0.478 µM and the GI50 (OVCAR-4) was 13.8 µM.
